{"source": "PubChem BioAssay AID2060621", "about": "(Molecular Pharmacology Branch, DTP, NCI, 2025)", "system": "324938-238-R-J1-PDC complex spheroids viability", "test": "Anticancer human tumor 324938-238-R-J1-PDC patient-derived bladder carcinoma cell line growth inhibition [CLK]", "details": "for viability, T/C: stronger effect = lower value", "procedure,_shortened": "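Patient-derived tumor cells grown as complex spheroids with HUVEC endothelial cells and mesenchymal stem cells, treated with drug combinations. Concentrations descend in half-log steps from near clinical Cmax, or from 10 microM if Cmax unknown.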", "note": "Where “and” joins values, the source holds several entries; their conditions need not be identical. Identical values can stand only once.", "data": [{"compound": "CC(CO)NC(=O)c1cc(-c2ccc(Cl)cc2)nn(-c2cnn(C)c2)c1=O", "note": "(centres undefined);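 also: viability read after seven days of drug exposure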;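 as to viability, T/C: 100% = DMSO vehicle control wells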", "values": [{"measurement": "viability, T/C", "setting": "compound 0.0316 µM", "value": "84.8% and 86.6%"}, {"measurement": "viability, T/C", "setting": "compound 0.1 µM", "value": "92.3% and 81.3%"}, {"measurement": "viability, T/C", "setting": "compound 0.316 µM", "value": "71.5% and 73.9%"}, {"measurement": "viability, T/C", "setting": "compound 1 µM", "value": "78.2% and 76.1%"}, {"measurement": "viability, T/C", "setting": "compound 3.16 µM", "value": "60.9% and 59.9%"}, {"measurement": "viability, T/C", "setting": "compound 10 µM", "value": "47.1% and 42.9%"}, {"measurement": "IC50", "setting": "curve of compound", "value": "8050 nM and 6340 nM"}]}, {"compound": "CN1CCN(c2cc(C(=O)Nc3cc4cc(-c5cnn(C)c5)ccc4cn3)ccn2)CC1", "values": [{"measurement": "viability, T/C", "setting": "compound 0.0316 µM", "value": "80.8% [middle of 12 runs]"}, {"measurement": "viability, T/C", "setting": "compound 0.1 µM", "value": "54.8% [middle of 12 runs]"}, {"measurement": "viability, T/C", "setting": "compound 0.316 µM", "value": "22.3% [middle of 12 runs]"}, {"measurement": "viability, T/C", "setting": "compound 1 µM", "value": "1.3% [middle of 12 runs]"}, {"measurement": "viability, T/C", "setting": "compound 3.16 µM", "value": "0.22% [middle of 5 runs]"}, {"measurement": "viability, T/C", "setting": "compound 10 µM", "value": "0.22% [middle of 10 runs]"}, {"measurement": "IC50", "setting": "compound alone, run of 08/14/2023", "value": "116 nM [middle of 10 runs]"}]}, {"compound": "C=C(F)C(=O)N1CCN(c2nc(OCC3CCCN3C)nc3c2CCN(c2cccc4cccc(Cl)c24)C3)CC1CC#N", "note": "(centres undefined)", "values": [{"measurement": "viability, T/C", "setting": "compound 0.0316 µM", "value": "79.2% and 88%"}, {"measurement": "viability, T/C", "setting": "compound 0.1 µM", "value": "88.8% and 85.7%"}, {"measurement": "viability, T/C", "setting": "compound 0.316 µM", "value": "89.3% and 88%"}, {"measurement": "viability, T/C", "setting": "compound 1 µM", "value": "85.3% and 92.6%"}, {"measurement": "viability, T/C", "setting": "compound 3.16 µM", "value": "35.5% and 55.8%"}, {"measurement": "viability, T/C", "setting": "compound 10 µM", "value": "0.27% and 1.96%"}, {"measurement": "IC50", "setting": "curve of compound", "value": "2260 nM and 3580 nM"}]}, {"compound": "CNC(=O)c1ccc(Nc2nc(OC3CCCC3)c3c(-c4ccc5nc(C)oc5c4)c[nH]c3n2)c(OC)c1", "values": [{"measurement": "viability, T/C", "setting": "compound 0.0316 µM", "value": "86% [middle of 12 runs]"}, {"measurement": "viability, T/C", "setting": "compound 0.1 µM", "value": "28.1% [middle of 12 runs]"}, {"measurement": "viability, T/C", "setting": "compound 0.316 µM", "value": "18.9% [middle of 12 runs]"}, {"measurement": "viability, T/C", "setting": "compound 1 µM", "value": "15.9% [middle of 12 runs]"}, {"measurement": "viability, T/C", "setting": "compound 3.16 µM", "value": "16.8% [middle of 12 runs]"}, {"measurement": "viability, T/C", "setting": "compound 10 µM", "value": "17.5% [middle of 12 runs]"}, {"measurement": "IC50", "setting": "compound alone, run of 08/15/2023", "value": "62.5 nM [middle of 11 runs]"}]}, {"compound": "COc1c(OCCCN2CCOCC2)ccc2c3n(c(=NC(=O)c4cnc(N)nc4)nc12)CCN3", "values": [{"measurement": "viability, T/C", "setting": "compound 0.00316 µM", "value": "64.9% and 69.6%"}, {"measurement": "viability, T/C", "setting": "compound 0.01 µM", "value": "49.7% and 52.5%"}, {"measurement": "viability, T/C", "setting": "compound 0.0316 µM", "value": "30.7% and 33.4%"}, {"measurement": "viability, T/C", "setting": "compound 0.1 µM", "value": "15.3% and 19%"}, {"measurement": "viability, T/C", "setting": "compound 0.316 µM", "value": "4.22% and 7.44%"}, {"measurement": "viability, T/C", "setting": "compound 1 µM", "value": "0.44% and 1.03%"}, {"measurement": "IC50", "setting": "curve of compound", "value": "9.79 nM and 11.5 nM"}]}, {"compound": "Nc1ccn(C2OC(CO)C(O)C2(F)F)c(=O)n1", "note": "(centres undefined)", "values": [{"measurement": "viability, T/C", "setting": "compound 0.0316 µM", "value": "27.6% and 25.4%"}, {"measurement": "viability, T/C", "setting": "compound 0.1 µM", "value": "12.5% and 15%"}, {"measurement": "viability, T/C", "setting": "compound 0.316 µM", "value": "10.8% and 12.3%"}, {"measurement": "viability, T/C", "setting": "compound 1 µM", "value": "10.8% and 13.3%"}, {"measurement": "viability, T/C", "setting": "compound 3.16 µM", "value": "8.49% and 10.3%"}, {"measurement": "viability, T/C", "setting": "compound 10 µM", "value": "6.92% and 8.69%"}, {"measurement": "IC50", "setting": "curve of compound", "value": "< 31.6", "unit": "nM"}]}, {"compound": "NC(=O)C(=Cn1cnc(-c2cc(C(F)(F)F)cc(C(F)(F)F)c2)n1)c1cncnc1", "note": "+ CN1CCN(c2cc(C(=O)Nc3cc4cc(-c5cnn(C)c5)ccc4cn3)ccn2)CC1", "values": [{"measurement": "IC50", "setting": "curve of first compound, second compound 0.0316 µM", "value": 44.9, "unit": "nM"}, {"measurement": "IC50", "setting": "curve of first compound, second compound 0.1 µM", "value": "< 9.49", "unit": "nM"}, {"measurement": "IC50", "setting": "curve of first compound, second compound 0.316 µM", "value": "< 9.49", "unit": "nM"}, {"measurement": "IC50", "setting": "curve of first compound, second compound 1 µM", "value": "< 9.49", "unit": "nM"}, {"measurement": "IC50", "setting": "curve of first compound, second compound 3.16 µM", "value": "< 9.49", "unit": "nM"}, {"measurement": "IC50", "setting": "curve of first compound, second compound 10 µM", "value": "< 9.49", "unit": "nM"}, {"measurement": "viability, T/C", "setting": "second compound 0.0316 µM, first compound 0.00949 µM", "value": 73.6, "unit": "%"}, {"measurement": "viability, T/C", "setting": "second compound 0.0316 µM, first compound 0.03 µM", "value": 56.1, "unit": "%"}, {"measurement": "viability, T/C", "setting": "second compound 0.0316 µM, first compound 0.0949 µM", "value": 37.3, "unit": "%"}, {"measurement": "viability, T/C", "setting": "second compound 0.0316 µM, first compound 0.3 µM", "value": 11.8, "unit": "%"}, {"measurement": "viability, T/C", "setting": "second compound 0.0316 µM, first compound 0.949 µM", "value": 4.81, "unit": "%"}, {"measurement": "viability, T/C", "setting": "second compound 0.0316 µM, first compound 3 µM", "value": 2.71, "unit": "%"}, {"measurement": "viability, T/C", "setting": "second compound 0.1 µM, first compound 0.00949 µM", "value": 47.5, "unit": "%"}, {"measurement": "viability, T/C", "setting": "second compound 0.1 µM, first compound 0.03 µM", "value": 37.8, "unit": "%"}, {"measurement": "viability, T/C", "setting": "second compound 0.1 µM, first compound 0.0949 µM", "value": 26, "unit": "%"}, {"measurement": "viability, T/C", "setting": "second compound 0.1 µM, first compound 0.3 µM", "value": 8.9, "unit": "%"}, {"measurement": "viability, T/C", "setting": "second compound 0.1 µM, first compound 0.949 µM", "value": 3.44, "unit": "%"}, {"measurement": "viability, T/C", "setting": "second compound 0.1 µM, first compound 3 µM", "value": 1.05, "unit": "%"}, {"measurement": "viability, T/C", "setting": "second compound 0.316 µM, first compound 0.00949 µM", "value": 21.6, "unit": "%"}, {"measurement": "viability, T/C", "setting": "second compound 0.316 µM, first compound 0.03 µM", "value": 13.4, "unit": "%"}, {"measurement": "viability, T/C", "setting": "second compound 0.316 µM, first compound 0.0949 µM", "value": 11.1, "unit": "%"}, {"measurement": "viability, T/C", "setting": "second compound 0.316 µM, first compound 0.3 µM", "value": 1.12, "unit": "%"}, {"measurement": "viability, T/C", "setting": "second compound 0.316 µM, first compound 0.949 µM", "value": 0.14, "unit": "%"}, {"measurement": "viability, T/C", "setting": "second compound 0.316 µM, first compound 3 µM", "value": 0.06, "unit": "%"}, {"measurement": "viability, T/C", "setting": "second compound 1 µM, first compound 0.00949 µM", "value": 0.21, "unit": "%"}, {"measurement": "viability, T/C", "setting": "second compound 1 µM, first compound 0.03 µM", "value": 0.17, "unit": "%"}, {"measurement": "viability, T/C", "setting": "second compound 1 µM, first compound 0.0949 µM", "value": 0.15, "unit": "%"}, {"measurement": "viability, T/C", "setting": "second compound 1 µM, first compound 0.3 µM", "value": 0.09, "unit": "%"}, {"measurement": "viability, T/C", "setting": "second compound 1 µM, first compound 0.949 µM", "value": 0.08, "unit": "%"}, {"measurement": "viability, T/C", "setting": "second compound 1 µM, first compound 3 µM", "value": 0.09, "unit": "%"}, {"measurement": "viability, T/C", "setting": "second compound 3.16 µM, first compound 0.00949 µM", "value": 0.09, "unit": "%"}, {"measurement": "viability, T/C", "setting": "second compound 3.16 µM, first compound 0.03 µM", "value": 0.13, "unit": "%"}, {"measurement": "viability, T/C", "setting": "second compound 3.16 µM, first compound 0.0949 µM", "value": 0.16, "unit": "%"}, {"measurement": "viability, T/C", "setting": "second compound 3.16 µM, first compound 0.3 µM", "value": 0.12, "unit": "%"}, {"measurement": "viability, T/C", "setting": "second compound 3.16 µM, first compound 0.949 µM", "value": 0.12, "unit": "%"}, {"measurement": "viability, T/C", "setting": "second compound 3.16 µM, first compound 3 µM", "value": 0.11, "unit": "%"}, {"measurement": "viability, T/C", "setting": "second compound 10 µM, first compound 0.00949 µM", "value": 0.07, "unit": "%"}, {"measurement": "viability, T/C", "setting": "second compound 10 µM, first compound 0.03 µM", "value": 0.12, "unit": "%"}, {"measurement": "viability, T/C", "setting": "second compound 10 µM, first compound 0.0949 µM", "value": 0.23, "unit": "%"}, {"measurement": "viability, T/C", "setting": "second compound 10 µM, first compound 0.3 µM", "value": 0.16, "unit": "%"}, {"measurement": "viability, T/C", "setting": "second compound 10 µM, first compound 0.949 µM", "value": 0.18, "unit": "%"}, {"measurement": "viability, T/C", "setting": "second compound 10 µM, first compound 3 µM", "value": 0.21, "unit": "%"}]}]}
